“Also recorded” adds a separate entry of the source. No end group written: not given here.
Key:
[1] = test system: human pancreatic islets; assay: Insulin secretion in human pancreatic islets; type: cell-based; conditions: peptide 100 nM, glucose absent or 2 to 25 mM
Method: The effects of UAG (1-14) and UAG (1-18), both used at 100 nM, were investigated on insulin secretion in human islets. […] UAG (1-28) and Exendin-4 were used as positive controls (FIGS. 8C and 8D).

[2] = test system: INS-1E rat β-cells; assay: MTT cell survival assay in INS-1E β-cells; type: cell-based; conditions: 0.1 nM to 100 nM
Method: The peptides were tested at increasing concentrations, ranging from 0.1 nM to 100 nM.
(§1) Hamster HIT-T15 insulin-secreting β-cells were obtained and cultured as described (Refs. 14, 4). INS-1E rat β-cells were kindly provided by Prof. Claes B. Wollheim (University Medical Center, Geneva, Switzerland) and cultured as described (Refs. 14, 4). Cell culture reagents were from Invitrogen (Milano, Italy). Cytokines were from Biosource (Invitrogen, Italy).
(§2) Cell survival was assessed by 3-[4,5-dimethylthiazol-2-yl]-2,5diphenyltetrazolium bromide (MTT) as described previously (Ref. 4). Cells were seeded on 96-well plates at a density of 5×10^3 cells/well. After treatments, cells were incubated with 1 mg/ml MTT for ≈1 h. The medium was aspirated, and the formazan product solubilized with 100 μl DMSO. Viability was assessed by spectrophotometry at 570 nm absorbance using a 96-well plate reader.

[3] = test system: hamster HIT-T15 β-cells; assay: MTT cell survival assay in HIT-T15 β-cells; type: cell-based; conditions: for increase of cell survival: serum-free conditions
Method: MTT experiments were also performed in hamster HIT-T15 β-cells, to test the survival effect of UAG (1-28) or its fragments UAG (1-14), UAG (1-18), UAG (1-5) and UAG (17-28) in serum deprived medium, either alone or with IFN-γ/TNF-α/IL-1β. As for the experiments performed on INS-1E β-cells, the peptides were tested at increasing concentrations, ranging from 0.1 nM to 100 nM.
The survival effect of UAG (6-13), UAG (8-13), UAG (8-12), UAG (8-11), UAG (9-12) and UAG (9-11) was assessed in cytokine-treated HIT-T15 β-cells.
The protective effects of peptides UAG (8-13) and UAG (8-12) were found similar to those of UAG (1-14) and UAG (1-18). A peptide made of the inverse sequence of UAG (1-14) and named UAG (14-1), was used as negative control for these experiments (FIG. 5A). […] These effects were however lower than those of UAG (6-13) (FIG. 5B).
UAG fragments with alanine (Ala) substitutions at different amino acid positions (6 to 13) were tested with regards to their survival effects in HIT-T15 hamster β-cells. The cells were cultured in serum deprived medium, either alone or with IFN-γ/TNF-α/IL-1β. The peptides were tested at the concentrations of 1 nM to 100 nM. […] Under treatment with cytokines, where cell survival was reduced by ≈18% with respect to serum starved conditions, all Ala substitutions, except those at positions 10 and 11, completely reversed cell death and brought the survival rate to levels that were even higher than those under serum-free conditions, at both 1 nM and 100 nM concentrations. These effects were similar to those elicited by the original peptide UAG (6-13) (FIG. 11B).
Particularly, the best effect was exerted by Gly 6-UAG (6-13), whereas the lowest was seen using AcSer 6-UAG (6-13), AcSer 6-(D)Pro 7-UAG (6-13) (FIG. 12B).
as §1, §2

[4] = test system: human pancreatic islets; assay: MTT cell survival assay in human pancreatic islets; type: cell-based; conditions: human islet cells, 1 nM to 100 nM
Method: The survival effect of UAG (1-14), UAG (1-18), UAG (1-5) and UAG (17-28), with respect to that of full length UAG (1-28), was assessed in human pancreatic islets by MTT. The peptides were tested in islet cells cultured in serum deprived medium, either alone or with IFN-γ/TNF-α/IL-1β (5 ng/ml each).
Human islets were obtained from pancreases of multiorgan donors as described (Ref. 4). Islet preparations with purity >70%, not suitable for transplantation, were provided by European Consortium for Islet Transplantation (ECIT) “Islets for Research Distribution Program,” Transplant Unit, Scientific Institute San Raffaele, Vita-Salute University, Milan. Islets (10,000) were cultured in CMRL (Invitrogen) with 10% FBS.
as §2

[5] = test system: HIT-T15 β-cells; assay: Glucose-induced insulin secretion in HIT-T15 β-cells; type: cell-based, hamster; conditions: data not shown
Method: HIT-T15 cells were plated at density of 5×10^5 cells into 100-mm dishes and serum starved for 24 h before incubation for 1 h at 37° C. in HEPES-buffered Krebs-Ringer bicarbonate buffer (KRBH), containing 0.5% BSA with 1.25 mM glucose. The medium was changed and the cells were incubated again for 1 h in KRBH/0.5% BSA containing 1.25, 7.5 or 15 mM glucose. Following acid ethanol extraction of the hormone, secreted insulin was quantitated by a radioimmunoassay kit (Linco Research, Labodia, Yens, Switzerland) which recognizes human insulin and cross reacts with rat insulin.

[6] = test system: UAG receptor on INS-1E pancreatic β-cells; assay: Competition with [125I-Tyr4]-UAG for binding sites on INS-1E membranes; design: species or system rat
Method: (§3) The ability of the fragment UAG (6-13) to compete in a concentration-dependent manner with [^125I-Tyr^4]-UAG for HIT-T15 (FIG. 10A) and INS-1E (FIG. 10B) binding sites was assayed. As shown in FIGS. 10A and 10B, unlabelled UAG (1-28) and UAG (6-13) competed with a similar efficacy and in a concentration-dependent fashion with [^125I-Tyr^4]-UAG for such binding sites in both cell lines.
(§4) Membranes from hamster HIT-T15 and rat INS-1E pancreatic β-cells were prepared and assayed for the presence of [^125I-Tyr^4]-UAG binding. The ability of UAG fragments to compete with the radioligand for such binding sites has been evaluated as previously described (Ref. 4). Data are presented as mean±S.E.M. of three independent experiments.

[7] = test system: UAG receptor on HIT-T15 pancreatic β-cells; assay: Competition with [125I-Tyr4]-UAG for binding sites on HIT-T15 membranes; design: species or system hamster
Method: as §3, §4

[8] = test system: ob/ob mice; assay: ob/ob mice, 4 weeks infusion by Alzet pump; type: in vivo, mouse
Method: Baseline tail vein plasma samples were collected from free-fed and 16 h fasted ob/ob mice 7 and 6 days before pump implantation into K2EDTA coated capillary tubes (Microvette CB300 K2E; Sarstedt, Germany). The animals were then separated into three groups with approximately equivalent weight ranges. Ten week old mice were anesthetized, and a filled Alzet 1004 pump was inserted, delivery portal first, into the peritoneal cavity. The musculoperitoneal and skin layers were then closed using interrupted sutures (Vicryl 5.0 FS-2 absorbable suture). Animals received pumps containing either saline, 10 mg/ml UAG, or 3.5 mg/mL UAG (6-13) (n=8 per group). Alzet 1004 pumps deliver […], and infused 30 μg of hUAG/animal/day (˜600 μg/kg/day) and 10 μg of UAG (6-13)/animal/day (˜200 μg/kg/day).
Blood samples (at 0900-1000) were obtained from fed and fasted animals at weeks 2 and 4 via the tail vein into EDTA Microvette tubes. Glucose levels in tail vein blood were measured directly using a glucometer. On the last day of treatment baseline (fasted) blood samples were taken.
For the experimental data illustrated in FIGS. 14A, 14B, 15 and 16, the animals were obtained from Charles River Laboratories (Maastricht, The Netherlands). Animals (B6.V-Lep^ob/J, Charles River Laboratories, Belgian colony) were received in our animal facilities at 8 weeks of age, and acclimatized in individual cages for 2 weeks before treatments began. They were maintained under standard 12:12 h light:dark conditions, 21° C., and were allowed free access to food and water. The animals were also handled daily to accustom them to the method used for blood collection. The peptides were dissolved in sterile, nonpyrogenic, 0.9% saline (Baxter BV, Utrecht, The Netherlands). D-glucose was obtained from Sigma-Aldrich Chemie BV (Zwijndrecht, The Netherlands), and was dissolved at 400 mg/ml in 0.9% saline. Alzet pumps (model 1004) were obtained from Charles River Laboratories (Maastricht, The Netherlands). Pumps were filled with 0.9% saline, UAG or UAG (6-13) solution under sterile conditions, and pre-incubated in 0.9% saline for at least 48 hours at 37° C. to initiate flow. Blood glucose levels were measured directly from tail vein incisions using a Freestyle mini glucometer and test strips (ART05214 Rev.A; Abbot, Amersfoort, The Netherlands). Plasma insulin levels were assayed by Ultra-sensitive mouse insulin ELISA (Cat. #10-1150-10; Mercodia, Sweden).

[9] = test system: HIT-T15 β-cells; assay: Cytokine-induced apoptosis in HIT-T15 β-cells; type: cell-based, hamster
Method: HIT-T15 β-cells were cultured for 24 h in serum-free medium, either alone or with IFN-γ/TNF-α/IL-1β. In both cell lines, apoptosis increased under cytokine treatment, with respect to serum starvation alone. […] UAG (14-1), the inverse sequence of UAG (1-14), was used as negative control, whereas UAG (1-28), was used as positive control in each experiment.

[10] = test system: STZ-induced diabetic rats; assay: Streptozotocin (STZ)-treated neonatal rats; conditions: for animal survival rate: day 9 after STZ
Method: Pregnant female Sprague-Dawley rats (n=10, day 14th-15th of pregnancy) were purchased from Harlan Srl (Italy), caged allowing free access to water and fed with a standard pellet rat diet. Natural birth occurred 6-7 days later. […] Dams were randomly assigned to the five groups and pups from the same litter were assigned to the same group. […] Pups were left with their mothers. All neonates were tested on day 2 for glycosuria using Accu-chek compact plus (Roche). Only those animals that were glycosuric at day 2 after birth were included in the STZ model group. […] Animals were killed at day 70 after birth by decapitation. Blood samples were collected after decapitation and immediately centrifuged at 20,000×g for 2 min at 4° C., and stored at −20° C. until assayed.
After excision, pancreases were removed and weighed. For insulin content determination, pancreases (35-50 mg) were homogenized and centrifuged in 5 ml acid-ethanol (0.15 mol/l HCl in 75% [vol/vol]ethanol) at 1,000 g for 20 min; the supernatants were stored at −80° C. For immunohistochemistry, additional pancreases were fixed in 4% paraformaldehyde fixative for 24 h and embedded in paraffin.
Plasma glucose levels were determined using a glucose analyzer. Insulin was measured from pancreases or from plasma by RIA as previously described (Ref. 15).

[11] = serum deprived medium with IFN-γ/TNF-α/IL-1β

Substance | insulin secretion [1] | cell survival (MTT) ([2]; serum deprived medium alone) | cell survival (MTT) [2, 11] | cell survival (MTT) ([3]; serum deprived medium alone) | cell survival (MTT) [3, 11] | binding to the UAG receptor [6] | binding to the UAG receptor [7] | further results
GSSFLSPEHQRVQQRKES [UAG (1-18)] | significant effect with 7.5 mM glucose | potently increased cell survival | potently increased cell survival | significantly increased cell viability; also recorded: potently increased cell survival | significantly increased cell viability; also recorded: potently increased cell survival | – | – | cell survival (MTT) ([4]; serum deprived medium alone): significantly increased cell survival at 1 nM and 10 nM
exendin-4 [reference compound] | significantly increased insulin secretion both in the absence and presence of glucose | – | – | – | – | – | – | –
GSSFLSPEHQRVQQ [UAG (1-14)] | significantly increased insulin secretion both in the absence and presence of glucose | potently increased cell survival | potently increased cell survival | significantly increased cell viability; also recorded: potently increased cell survival | significantly increased cell viability; also recorded: potently increased cell survival | recognized and bound | recognized and bound | glucose-induced insulin secretion [5]: significantly increased glucose-induced insulin secretion; cell survival (MTT) ([4]; serum deprived medium with IFN-γ/TNF-α/IL-1β (5 ng/ml each)): prevented cell death at 100 nM
SPEHQRVQ [UAG (6-13), Ser-Pro-Glu-His-Gln-Arg-Val-Gln] | – | – | – | – | potently inhibited cytokine-induced cell death; also recorded: strongly effective in increasing survival | highest binding activity | highest binding activity | gonadal fat weight over the period of treatment ([8]; mouse, in vivo): did not cause an increase in gonadal fat weight; decrease of gonadal fat pad weight relative to saline treated controls ([8]; period of treatment (4 weeks), trend p<0.06): approximately 7%; suppression of fasting glucose concentrations from saline treated controls ([8]; week 4): This effect remained at week 4; fed plasma glucose levels relative to saline controls ([8]; weeks 2 and 4, no statistically significant effects (RM-ANOVA)): consistent suppressive effect; antiapoptotic effect (cytokine-induced apoptosis) ([9]; 24 h serum-free medium with IFN-γ/TNF-α/IL-1β, 1, 10, 100 nM): significantly reduced cytokine-induced apoptosis; also recorded: strongest antiapoptotic effect; cell number and morphology with respect to cytokine condition ([9]; cytokine-treated, data not shown): increased the number of cells, induced cell enlargement and small islets formation; animal survival rate ([10]; 30 nmol/l (STZ alone ≈52%)): ≈ 71%; animal survival rate ([10]; 100 nmol/l (STZ alone ≈52%)): 89%; reduction of plasma glucose vs. STZ group ([10]; day 70, 30 nmol/l): 31%; reduction of plasma glucose vs. STZ group ([10]; day 70, 100 nmol/l): 14%; plasma insulin levels ([10]; day 70, STZ-treated rats, UAG (6-13) at both concentrations): increasing insulin levels; increase of cell survival ([3]; 1 nM): ≈ 18%; increase of cell survival ([3]; 100 nM): ≈ 30%
